Measurements taken from article PMC5522996, “Big conductance calcium‐activated potassium channel openers control spasticity without sedation” (British Journal of Pharmacology, 2017).
pIC50: −log10 of the molar value. “Also recorded” adds a separate entry of the source.

Tests used:
mouse vas deferens = test: βγ‐methylene ATP‐induced contraction of electrically unstimulated vas deferens; format: cell-based; conditions: 100 nM, 30 min before βγ‐methylene ATP
normal animals = test: Muscle tone in normal animals (resistance to flexion); format: in vivo, mouse; conditions: 40 mg·kg^−1 p.o.
Pharmacokinetics in rats = format: in vivo, rat
Protocol: The stability of compounds when subjected to hepatic and plasma degradation was assessed in vitro by Inpharmatica, Cambridge, UK. Compounds (1 μM) were incubated with either pooled mouse liver microsomes (0.1 mg protein mL^−1) or pooled mouse plasma at 37°C for 0, 5, 10, 20 and 40 min before termination with acetonitrile containing warfarin as an analytical internal standard. Samples were centrifuged, and the resultant supernatant analysed for parent compound. The mass responses at baseline were taken as the 100% reference values against which the disappearance of the compound was measured. The natural log of the % remaining values was used to generate linear plots of disappearance of the compounds. Half‐life values were calculated from the slope of these plots. Hepatocyte metabolism was assessed by Cyprotex, Macclesfield, and 10 μM VSN16R was incubated with primary mouse, rat, monkey (Macaque) and human hepatocytes for 1 h, and the presence of metabolites was assessed using liquid […] mass spectroscopy. The stability of VSN16R was assessed in vivo by Inpharmatica, Cyprotex and Charles Rivers, Cambridge. Blood (plasma) samples were obtained prior to and 5 min to 24 h after drug administration of 2–5 mg·kg^−1 i.v. or 5 mg·kg^−1 p.o. VSN16R into outbred mice and rats (n = 3 per time point). In addition, plasma, brain and spinal cord samples were obtained from ABH with spastic EAE. Immediately after blood collection, the brain and spinal cord were removed and then stored at −20°C prior to assay. Tissue samples were weighed, homogenized and centrifuged, and the lysates generated. Brain lysates and plasma were assayed by LC–MS methods by Inpharmatica/Charles Rivers, Cambridge, UK. This was also performed using a Waters Xevo TQ or API4000, AB Sciex mass spectrometer using spiked samples as standards. PK Solutions Software (Summit Research Services, Montrose, CO, USA), AB Sciex Analyst software combined with Thermo Fisher Scientific Watson LIMS processing and reporting software or WinNonLin pharmacokinetic or PK solutions 2.0 software (Summit Research Services, Montrose CO, USA) were used to produce PK parameters. Data are expressed as mean ± SEM. The detection limit of VSN16R was 2 ng·mL^−1 in plasma and brain and 14 ng·mL^−1 in spinal cords. The detection limit of VSN22R was 2 ng·mL^−1 in plasma and 0.1 ng·mL^−1 for VSN44R in plasma. Pharmacokinetics in toxicological samples in rats (n = 6 per group), dogs (n = 6 per group) and humans (n = 6 per group) were performed by Charles Rivers (Edinburgh, UK).

[1] = Stability in pooled mouse plasma; format: in vitro ADME; conditions: 37°C, upper limit 100 min, read-out: t ½ in plasma
Protocol: The stability of compounds when subjected to hepatic and plasma degradation was assessed in vitro by Inpharmatica, Cambridge, UK. Compounds (1 μM) were incubated with either pooled mouse liver microsomes (0.1 mg protein mL^−1) or pooled mouse plasma at 37°C for 0, 5, 10, 20 and 40 min before termination with acetonitrile containing warfarin as an analytical internal standard. Samples were centrifuged, and the resultant supernatant analysed for parent compound. The mass responses at baseline were taken as the 100% reference values against which the disappearance of the compound was measured. The natural log of the % remaining values was used to generate linear plots of disappearance of the compounds. Half‐life values were calculated from the slope of these plots. Hepatocyte metabolism was assessed by Cyprotex, Macclesfield, and 10 μM VSN16R was incubated with primary mouse, rat, monkey (Macaque) and human hepatocytes for 1 h, and the presence of metabolites was assessed using liquid […] mass spectroscopy. The stability of VSN16R was assessed in vivo by Inpharmatica, Cyprotex and Charles Rivers, Cambridge. Blood (plasma) samples were obtained prior to and 5 min to 24 h after drug administration of 2–5 mg·kg^−1 i.v. or 5 mg·kg^−1 p.o. VSN16R into outbred mice and rats (n = 3 per time point). […] Data are expressed as mean ± SEM. […]

rats = test: Reproductive toxicology in rats; format: in vivo, rat; conditions: p.o.
CYP450 2C9 = molecular target: T1, CYP450 2C9 (Homo sapiens, UniProt P11712); test: CYP450 inhibition of substrate binding; format: in vitro ADME; conditions: read-out: IC50 Inhibition of substrate binding, VSN16R
T1 construct: host or cells: BTI NN-5B1-4 or Sf9 insect cells
T1 sequence (P11712 whole entry): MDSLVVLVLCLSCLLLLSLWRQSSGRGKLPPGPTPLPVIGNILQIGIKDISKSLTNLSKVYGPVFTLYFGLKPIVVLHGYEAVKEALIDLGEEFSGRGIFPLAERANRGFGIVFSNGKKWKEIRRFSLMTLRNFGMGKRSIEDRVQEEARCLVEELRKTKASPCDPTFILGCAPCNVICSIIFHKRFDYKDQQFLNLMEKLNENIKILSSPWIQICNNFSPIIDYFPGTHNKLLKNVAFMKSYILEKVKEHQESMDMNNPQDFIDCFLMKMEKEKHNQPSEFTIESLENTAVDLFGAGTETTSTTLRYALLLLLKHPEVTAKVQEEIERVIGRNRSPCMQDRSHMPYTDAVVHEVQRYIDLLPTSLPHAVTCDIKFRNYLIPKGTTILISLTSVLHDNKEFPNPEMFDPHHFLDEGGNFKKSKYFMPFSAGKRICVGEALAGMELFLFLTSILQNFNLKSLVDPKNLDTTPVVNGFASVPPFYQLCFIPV
Text: (§1) Inhibition of binding of either 3-cyano-7-ethoxycoumarin, dibenzylfluorescein or 7-benzyoxy-4-
(§2) (trifluoromethyl) coumarin in human enzyme transfected BTI NN-5B1-4 cells or Sf9 insect cells or
(§3) inhibition of dextromethorphan substrate to CYP450 2D6 in liver microsomes.

CB1 = molecular target: T2, CB1 (Homo sapiens, UniProt P21554); test: Receptor binding profile of VSN16R
T2 construct: purchased Cerep; Chantest; DiscoveRx; Multispan; MDS Pharma Services
T2 sequence (P21554 whole entry): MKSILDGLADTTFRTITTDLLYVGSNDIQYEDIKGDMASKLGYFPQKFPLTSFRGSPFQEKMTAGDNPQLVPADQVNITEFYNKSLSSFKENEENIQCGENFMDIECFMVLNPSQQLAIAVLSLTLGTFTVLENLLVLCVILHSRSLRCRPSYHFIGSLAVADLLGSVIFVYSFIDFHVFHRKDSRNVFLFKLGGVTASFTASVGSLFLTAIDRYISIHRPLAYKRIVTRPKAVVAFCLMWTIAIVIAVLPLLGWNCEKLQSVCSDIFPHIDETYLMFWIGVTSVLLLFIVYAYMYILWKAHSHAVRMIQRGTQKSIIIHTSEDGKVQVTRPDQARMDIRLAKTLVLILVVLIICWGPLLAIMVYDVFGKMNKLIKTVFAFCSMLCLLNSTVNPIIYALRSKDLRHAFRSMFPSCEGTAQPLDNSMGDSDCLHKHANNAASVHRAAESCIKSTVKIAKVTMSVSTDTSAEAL

CCR1 = molecular target: T3, CCR1 (Homo sapiens, UniProt P32246); test: Receptor binding profile of VSN16R; conditions: 10µM VSN16R
T3 construct: purchased Cerep; Chantest; DiscoveRx; Multispan; MDS Pharma Services
T3 sequence (P32246 whole entry): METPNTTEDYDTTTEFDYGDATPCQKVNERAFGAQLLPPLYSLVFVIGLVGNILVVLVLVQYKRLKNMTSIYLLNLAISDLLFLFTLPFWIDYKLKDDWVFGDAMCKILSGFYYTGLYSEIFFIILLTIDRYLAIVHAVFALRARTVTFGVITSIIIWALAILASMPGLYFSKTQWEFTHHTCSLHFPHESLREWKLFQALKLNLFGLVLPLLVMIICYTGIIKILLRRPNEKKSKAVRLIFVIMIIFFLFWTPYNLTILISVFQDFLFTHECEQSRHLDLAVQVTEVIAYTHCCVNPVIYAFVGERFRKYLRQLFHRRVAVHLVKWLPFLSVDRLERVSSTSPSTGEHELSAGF

ML1 = test: Receptor binding profile of VSN16R; design: species or system human; conditions: 10µM VSN16R
M2 = molecular target: T4, M2 (Homo sapiens, UniProt P08172); test: Receptor binding profile of VSN16R; conditions: 10µM VSN16R
T4 construct: purchased Cerep; Chantest; DiscoveRx; Multispan; MDS Pharma Services
T4 sequence (P08172 whole entry): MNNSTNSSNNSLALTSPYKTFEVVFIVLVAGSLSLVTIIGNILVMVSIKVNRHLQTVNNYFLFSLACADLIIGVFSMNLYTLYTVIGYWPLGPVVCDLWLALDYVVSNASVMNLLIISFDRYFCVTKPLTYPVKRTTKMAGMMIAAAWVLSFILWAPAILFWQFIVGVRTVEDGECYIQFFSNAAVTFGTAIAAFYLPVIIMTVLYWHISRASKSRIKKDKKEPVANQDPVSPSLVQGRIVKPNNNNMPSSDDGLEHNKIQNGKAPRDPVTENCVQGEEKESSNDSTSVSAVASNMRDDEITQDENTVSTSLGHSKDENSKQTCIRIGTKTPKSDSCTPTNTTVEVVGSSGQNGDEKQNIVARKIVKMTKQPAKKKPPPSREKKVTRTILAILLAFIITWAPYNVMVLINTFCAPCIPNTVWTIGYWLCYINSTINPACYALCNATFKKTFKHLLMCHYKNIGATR

Y1 = molecular target: T5, Y1 (Homo sapiens, UniProt P25929); test: Receptor binding profile of VSN16R; conditions: 10µM VSN16R
T5 construct: purchased Cerep; Chantest; DiscoveRx; Multispan; MDS Pharma Services
T5 sequence (P25929 whole entry): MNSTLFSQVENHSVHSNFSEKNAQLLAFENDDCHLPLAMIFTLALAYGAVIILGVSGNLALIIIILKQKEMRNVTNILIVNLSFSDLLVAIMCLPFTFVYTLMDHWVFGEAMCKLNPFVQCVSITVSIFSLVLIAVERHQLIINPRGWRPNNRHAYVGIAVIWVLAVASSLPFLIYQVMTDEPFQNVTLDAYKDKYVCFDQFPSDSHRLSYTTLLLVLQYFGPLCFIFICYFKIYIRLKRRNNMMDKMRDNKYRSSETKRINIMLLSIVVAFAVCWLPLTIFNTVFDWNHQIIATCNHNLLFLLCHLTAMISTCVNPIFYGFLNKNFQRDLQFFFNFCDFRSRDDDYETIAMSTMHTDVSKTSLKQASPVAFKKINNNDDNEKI

NT1 = molecular target: T6, NT1 (Homo sapiens, UniProt P30989); test: Receptor binding profile of VSN16R; conditions: 10µM VSN16R
T6 construct: purchased Cerep; Chantest; DiscoveRx; Multispan; MDS Pharma Services
T6 sequence (P30989 whole entry): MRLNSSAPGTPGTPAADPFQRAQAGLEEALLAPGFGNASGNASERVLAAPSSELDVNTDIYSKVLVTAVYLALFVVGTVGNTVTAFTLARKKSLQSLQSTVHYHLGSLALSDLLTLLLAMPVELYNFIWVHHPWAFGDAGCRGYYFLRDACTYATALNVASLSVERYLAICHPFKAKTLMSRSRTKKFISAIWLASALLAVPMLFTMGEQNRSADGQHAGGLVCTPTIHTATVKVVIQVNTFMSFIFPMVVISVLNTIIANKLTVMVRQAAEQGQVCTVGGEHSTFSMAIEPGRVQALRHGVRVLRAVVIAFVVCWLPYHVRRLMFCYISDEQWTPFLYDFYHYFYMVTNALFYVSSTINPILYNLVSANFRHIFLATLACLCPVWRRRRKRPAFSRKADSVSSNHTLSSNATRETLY

GPR35 = molecular target: T7, GPR35 (Homo sapiens, UniProt Q9HC97); test: Receptor binding profile of VSN16R; conditions: 10µM VSN16R
T7 construct: purchased Cerep; Chantest; DiscoveRx; Multispan; MDS Pharma Services
T7 sequence (Q9HC97 whole entry): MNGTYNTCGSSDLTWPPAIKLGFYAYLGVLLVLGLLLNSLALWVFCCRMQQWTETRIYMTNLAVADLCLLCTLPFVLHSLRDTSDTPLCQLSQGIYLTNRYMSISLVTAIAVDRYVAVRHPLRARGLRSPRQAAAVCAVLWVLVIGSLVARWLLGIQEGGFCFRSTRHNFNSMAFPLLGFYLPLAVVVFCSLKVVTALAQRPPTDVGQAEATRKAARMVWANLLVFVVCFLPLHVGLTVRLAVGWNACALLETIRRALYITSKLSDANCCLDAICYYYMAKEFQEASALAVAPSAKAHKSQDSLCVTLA

EDG2 = molecular target: T8, EDG2 (Homo sapiens, UniProt Q92633); test: Receptor binding profile of VSN16R; conditions: 10µM VSN16R
T8 construct: purchased Cerep; Chantest; DiscoveRx; Multispan; MDS Pharma Services
T8 sequence (Q92633 whole entry): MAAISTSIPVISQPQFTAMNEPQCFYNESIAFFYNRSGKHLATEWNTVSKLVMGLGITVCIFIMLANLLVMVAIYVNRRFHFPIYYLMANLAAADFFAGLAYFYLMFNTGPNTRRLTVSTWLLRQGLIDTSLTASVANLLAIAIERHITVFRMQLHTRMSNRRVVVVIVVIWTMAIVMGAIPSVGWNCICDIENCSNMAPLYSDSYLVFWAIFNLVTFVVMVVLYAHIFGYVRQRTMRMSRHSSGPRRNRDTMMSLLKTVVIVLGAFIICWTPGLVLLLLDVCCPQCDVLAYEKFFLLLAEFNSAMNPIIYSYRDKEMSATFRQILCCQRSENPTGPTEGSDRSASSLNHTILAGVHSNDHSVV

EDG3 = molecular target: T9, EDG3 (Homo sapiens, UniProt Q99500); test: Receptor binding profile of VSN16R; conditions: 10µM VSN16R
T9 construct: purchased Cerep; Chantest; DiscoveRx; Multispan; MDS Pharma Services
T9 sequence (Q99500 whole entry): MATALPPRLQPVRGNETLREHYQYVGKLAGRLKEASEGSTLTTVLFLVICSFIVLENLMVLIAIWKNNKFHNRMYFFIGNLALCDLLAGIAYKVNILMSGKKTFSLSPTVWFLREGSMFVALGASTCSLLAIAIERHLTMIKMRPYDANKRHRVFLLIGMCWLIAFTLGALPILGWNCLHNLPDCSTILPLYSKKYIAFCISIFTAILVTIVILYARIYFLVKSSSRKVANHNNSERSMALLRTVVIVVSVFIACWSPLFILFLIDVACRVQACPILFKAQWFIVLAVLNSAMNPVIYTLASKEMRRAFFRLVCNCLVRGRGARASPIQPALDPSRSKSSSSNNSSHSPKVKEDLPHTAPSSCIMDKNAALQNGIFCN

EDG7 = molecular target: T10, EDG7 (Homo sapiens, UniProt Q9UBY5); test: Receptor binding profile of VSN16R; conditions: 10µM VSN16R
T10 construct: purchased Cerep; Chantest; DiscoveRx; Multispan; MDS Pharma Services
T10 sequence (Q9UBY5 whole entry): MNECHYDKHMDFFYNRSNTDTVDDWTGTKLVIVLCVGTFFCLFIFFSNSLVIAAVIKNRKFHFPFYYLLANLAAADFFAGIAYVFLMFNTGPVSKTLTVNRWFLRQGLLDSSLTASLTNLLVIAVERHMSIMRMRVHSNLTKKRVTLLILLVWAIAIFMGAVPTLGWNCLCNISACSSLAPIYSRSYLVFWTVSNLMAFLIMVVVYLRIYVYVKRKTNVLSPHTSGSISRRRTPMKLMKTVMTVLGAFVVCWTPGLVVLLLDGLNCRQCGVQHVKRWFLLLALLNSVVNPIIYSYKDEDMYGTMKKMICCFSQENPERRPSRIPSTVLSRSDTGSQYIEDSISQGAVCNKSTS

GlyR = test: Receptor binding profile of VSN16R; design: species or system human; conditions: 10µM VSN16R
CYP450 3A5 = CYP450 3A5 (Homo sapiens, UniProt P20815)
Chain of CYP450 3A5 (P20815 whole entry): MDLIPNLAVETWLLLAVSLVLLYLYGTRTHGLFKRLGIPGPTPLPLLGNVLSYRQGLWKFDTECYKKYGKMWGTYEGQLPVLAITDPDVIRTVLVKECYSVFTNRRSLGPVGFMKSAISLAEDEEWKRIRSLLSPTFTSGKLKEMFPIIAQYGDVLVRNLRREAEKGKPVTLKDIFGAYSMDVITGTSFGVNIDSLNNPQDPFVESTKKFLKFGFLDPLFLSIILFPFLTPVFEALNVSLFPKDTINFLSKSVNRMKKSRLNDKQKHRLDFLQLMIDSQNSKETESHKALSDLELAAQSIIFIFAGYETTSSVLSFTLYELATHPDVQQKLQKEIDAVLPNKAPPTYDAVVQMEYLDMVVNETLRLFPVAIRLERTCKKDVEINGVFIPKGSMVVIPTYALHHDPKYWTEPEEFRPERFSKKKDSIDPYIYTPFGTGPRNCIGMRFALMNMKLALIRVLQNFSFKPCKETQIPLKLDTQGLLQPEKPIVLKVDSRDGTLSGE
Text: as §1, §2, §3

healthy humans = test: Phase I single dose: coagulation, urinanalysis, vital signs, electrocardiograms; conditions: for Electrocardiogram Heart Rate / PR Duration / QRS Duration / QT Duration / RR Duration: Day 1; for Activated Partial Thrombin Time / Partial Prothrombin Time / Supine Diastolic Blood Pressure / Supine Pulse Rate / Supine Respiratory Rate / Supine Systolic Blood Pressure / Supine Temperature / Thrombin Time / Urinanalysis Ketones / Urinanalysis Specific Gravity / Urinanalysis pH / Urine Bilirubin / Urine Glucose / Urine Protein / Urine RBC: Day 2
[2] = first 12 h following p.o. dosing of rats

## C[C@H](CO)NC(=O)c1cccc(/C=C\CCCC(=O)N(C)C)c1 [VSN16R]
Mouse vas deferens
  Effect on βγ‐methylene ATP‐induced contractions: does not inhibit; also recorded: did not affect
Normal animals
  Change (increase) of muscle tone from baseline: 9.1 ± 6.3%
Pharmacokinetics in rats; [2]
  Faecal elimination: approximately 1 % of the dose
  Renal excretion: less than 0.5 % of the dose
Pharmacokinetics in rats; in vivo, po, 5 mg·kg^−1 p.o., rat
  bioavailability: 40%
Pharmacokinetics in rats; rat, plasma, po, 5 mg·kg^−1 p.o., rats, read-out: Elimination half‐life
  half-life: 43 min
[1]
  half-life at 1 μM: > 100 min
rats
  Reproductive toxicology safe level: 1000 mg·kg^−1
CYP450 2C9
  pIC50: < 5.00
CB1; 10µM VSN16R
  Activity: Negligible Activity
CB1; receptor‐transfected cell line‐based assays
  Binding or agonism at CB1 receptors: does not bind to or agonize
CCR1
  Activity: Negligible Activity
ML1
  Activity: Negligible Activity
M2
  Activity: Negligible Activity
Y1
  Activity: Negligible Activity
NT1
  Activity: Negligible Activity
GPR35
  Activity: Negligible Activity
EDG2
  Activity: Negligible Activity
EDG3
  Activity: Negligible Activity
EDG7
  Activity: Negligible Activity
GlyR
  Activity: Negligible Activity
CYP450 3A5
  pIC50: < 5.00
Healthy humans; 25mg
  Electrocardiogram Heart Rate: 59 ± 12 beats per min
  PR Duration: 184 ± 20 ms
  QRS Duration: 98 ± 9 ms
  QT Duration: 388 ± 26 ms
  RR Duration: 1044 ± 185 ms
  Activated Partial Thrombin Time: 26.4 ± 0.9 s
  Partial Prothrombin Time: 10.8 ± 0.3 s
  Supine Diastolic Blood Pressure: 65 ± 4 mmHg
  Supine Pulse Rate: 61 ± 15 beats per min
  Supine Respiratory Rate: 14 ± 2 Breath/min
  Supine Systolic Blood Pressure: 117 ± 9 mmHg
  Supine Temperature: 36.6 ± 0.2 ˚C
  Thrombin Time: 16.2 ± 0.8 s
  Urinanalysis Ketones: 0.0 ± 0.0 mmol/L
  Urinanalysis Specific Gravity: 1.016 ± 0.012
  Urinanalysis pH: 7.0 ± 0.6
  Urine Bilirubin: 0.0 ± 0.0 µmol/L
  Urine Glucose: 0.0 ± 0.0 mmol/L
  Urine Protein: 0.08 ± 0.10 g/L
  Urine RBC: 0.0 ± 0.0 mg/L
Healthy humans; 800mg
  Electrocardiogram Heart Rate: 67 ± 8 beats per min
  PR Duration: 164 ± 16 ms
  QRS Duration: 98 ± 7 ms
  QT Duration: 383 ± 19 ms
  RR Duration: 903 ± 122 ms
  Activated Partial Thrombin Time: 24.9 ± 1.9 s
  Partial Prothrombin Time: 10.9 ± 0.5 s
  Supine Diastolic Blood Pressure: 71 ± 9 mmHg
  Supine Pulse Rate: 65 ± 9 beats per min
  Supine Respiratory Rate: 16 ± 2 Breath/min
  Supine Systolic Blood Pressure: 118 ± 10 mmHg
  Supine Temperature: 36.6 ± 0.2 ˚C
  Thrombin Time: 15.9 ± 1.2 s
  Urinanalysis Ketones: 0.0 ± 0.0 mmol/L
  Urinanalysis Specific Gravity: 1.017 ± 0.009
  Urinanalysis pH: 6.0 ± 0.4
  Urine Bilirubin: 0.0 ± 0.0 µmol/L
  Urine Glucose: 0.0 ± 0.0 mmol/L
  Urine Protein: 0.06 ± 0.08 g/L
  Urine RBC: 0.0 ± 0.0 mg/L
